This note sets out measurements from patent publication US11492347B2 (ENYO PHARMA, priority 2018, dated 2022).

Test [1] concerns H1N1 (influenza A/New Caledonia/20/99). Kind of test: microbe, parasite or virus in culture. The format is cell-based. The settings on record: H1N1, A549, 48 h.
Another test relates to NFκB. Kind of test: NFκB reporter assay, TNFα stimulation of A549 NFκB-NanoLuciferase reporter cells. As to conditions: Homo sapiens, 4 ng/ml TNFα, NanoGlo luciferase assay 6 hours later. In kind it is cell-based. The source says:
Compounds of the present invention have been tested for their capacity to inhibit NFκB.
The NFκB reporter construct was made by cloning 5 NFκB responsive elements upstream of a NanoLuciferase reporter gene flanked by AAVS1 genomic sequences.
NFκB Responsive element fused with NanoLuciferase and SV40 late Poly(A) signal was amplified from pNL3.2-NFκB-Nluc (Promega) using NFKB-NLUC-F and NFKB-NLUC-R primers and inserted by Infusion (TaKaRa) in AAVS1 SA-2A-puro-pA donor plasmid (Hockemeyer et al, Nat Biotechnol. 2009, 27, 851-7) digested by Sal1. pCRISPR AAVS1-T2 expressing a guide RNA (gRNA) to target human AAVS1 (T2 target sequence) was constructed by inserting AAVS1-T2A hybridized primers in pLentiCRISPR v2-blast (Sanjana et al, Nat Methods. 2014, 11, 783-4) digested by Bsmbl.
A549 cells were transfected by the plasmids and puromycine selected for 5 days (1 μg mL-1). Then clones were obtained by limiting dilution and selected to maximize TNF dependent NFκB-NanoLuciferase induction.
The reporter cells were seeded on a 96-well plate for overnight with DMEM including 10% FBS. Test compounds were added at varying concentrations. The cells then were treated with 4 ng/ml TNFα (Peprotech, ref E251) in DMEM+10% FBS. NanoGlo luciferase assay (Promega) was carried out 6 hours later. Luminescence was measured using a Spark 20M spectrofluorimeter (Tecan). Values were normalized to the luminescence measured in untreated cells.

SMILES strings stand for the structures.

`CC1(C)CCc2sc(NC(=O)c3ccc(NC4CCOCC4)cc3)c(C(=O)O)c21` [Compound #62, 4,4-Dimethyl-2-[[4-(tetrahydropyran-4-ylamino)benzoyl]amino]-5,6-dihydrocyclopenta[b]thiophene-3-carboxylic acid] showed an IC50 in test [1] of 50 nM. The EC50 in the test with NFκB stood at 380 nM.
